In patent publication US6548270B1, “DNA encoding human acid-sensing ion channel BNaC4 (ASIC4)” (Ortho-McNeil Pharmaceutical, Inc., priority 2000, dated 2003):

What was measured:
human BNaC4 = biological target: T1, human BNaC4 (Homo sapiens, UniProt Q96FT7); assay: pH 5.5-induced whole cell current in Xenopus oocytes injected with human BNaC4 cRNA (two-electrode voltage clamp); type: cell-based; conditions: 200 uM amiloride, bath application; oocytes injected with hBNaC4 cRNA; n=3
T1 sequence (Q96FT7 1-539): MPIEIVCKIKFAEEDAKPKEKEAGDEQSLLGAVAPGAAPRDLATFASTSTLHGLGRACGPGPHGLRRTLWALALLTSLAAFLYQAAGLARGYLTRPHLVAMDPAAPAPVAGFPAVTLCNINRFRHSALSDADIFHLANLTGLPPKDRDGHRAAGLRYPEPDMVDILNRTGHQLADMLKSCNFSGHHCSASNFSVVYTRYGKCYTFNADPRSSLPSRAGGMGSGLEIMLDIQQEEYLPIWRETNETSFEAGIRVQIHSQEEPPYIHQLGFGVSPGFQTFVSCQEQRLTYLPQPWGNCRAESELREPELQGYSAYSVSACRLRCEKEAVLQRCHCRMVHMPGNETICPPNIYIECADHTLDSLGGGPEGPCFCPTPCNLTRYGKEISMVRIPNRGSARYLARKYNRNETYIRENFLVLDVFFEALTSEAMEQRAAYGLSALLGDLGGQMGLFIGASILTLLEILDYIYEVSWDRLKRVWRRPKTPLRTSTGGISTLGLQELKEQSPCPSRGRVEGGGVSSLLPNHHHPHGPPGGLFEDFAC
Protocol: Xenopus laevis oocytes were prepared and injected using standard methods previously described and known in the art (Fraser et al., 1993). Ovarian lobes from adult female Xenopus laevis (Nasco, Fort Atkinson, Wis.) were teased apart, rinsed several times in nominally Ca-free saline containing: 82.5 mM NaCl, 2.5 mM KCl, 1 mM MgCl2, 5 mM HEPES, adjusted to pH 7.0 with NaOH (OR-2), and gently shaken in OR-2 containing 0.2% collagenase Type 1 (ICN Biomedicals, Aurora, Ohio) for 2-5 hours. When approximately 50% of the follicular layers were removed, Stage V and VI oocytes were selected and rinsed in media consisting of 75% OR-2 and 25% ND-96. […]
Oocytes were injected with 50 nl of the human BNaC4 RNA (0.002-5 ng). […] Whole cell agonist (protons)-induced currents were measured 1-6 days after injection with a conventional two-electrode voltage clamp (GeneClamp50O, Axon Instruments, Foster City, Calif.) using standard methods previously described and known in the art (Dascal, Nathan (1987) The use of Xenopus oocytes for the study of ion channels. CRC Critical reviews in Biochemistry 22:317-387). […]
Functional expression of human BNaC4 in Xenopus oocytes is shown: activation by pH 5.5. […] The oocyte was recorded 3 days after injection of 2 ng hBNaC CRNA. […] The BNaC4 oocytes tested produced currents of at least +60 nA (measured at +80 mV at the end of a voltage ramp protocol) (range +60 to +1240 nA). […]

ASIC1A = biological target: T2, ASIC1A (Rattus norvegicus, UniProt P55926); conditions: read-out: Amiloride sensitivity, KD; cited from earlier work
T2 sequence (P55926 1-526): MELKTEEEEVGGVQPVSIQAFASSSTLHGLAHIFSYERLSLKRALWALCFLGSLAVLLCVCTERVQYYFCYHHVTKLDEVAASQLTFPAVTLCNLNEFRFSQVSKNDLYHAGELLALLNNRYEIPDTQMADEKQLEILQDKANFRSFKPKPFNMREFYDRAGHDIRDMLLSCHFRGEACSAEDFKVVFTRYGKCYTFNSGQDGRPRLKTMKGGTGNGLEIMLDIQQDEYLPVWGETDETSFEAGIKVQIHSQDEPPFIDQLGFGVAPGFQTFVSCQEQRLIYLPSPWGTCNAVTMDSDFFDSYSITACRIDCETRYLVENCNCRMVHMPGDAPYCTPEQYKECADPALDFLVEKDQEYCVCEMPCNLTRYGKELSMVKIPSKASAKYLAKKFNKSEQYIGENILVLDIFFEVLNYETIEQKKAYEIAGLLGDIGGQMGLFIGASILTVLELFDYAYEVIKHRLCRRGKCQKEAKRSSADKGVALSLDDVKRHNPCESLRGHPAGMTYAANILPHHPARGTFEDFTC

- block of the pH5.5-induced fast increase in conductance (human BNaC4): 40+/−13%
SMILES: N=C(N)NC(=O)c1nc(Cl)c(N)nc1N [amiloride]
- Kd (ASIC1A): ~10 µM
